# Laboratory results as given in US5824647A, “Chemotactic wound healing peptides” (priority 1995, dated 1998).
# Several values for one entry are separate records, joined by “and”; a condition that tells them apart may be missing. Equal values may be shown once. Entries after “also recorded” stand apart in the source; their conditions may differ.
# Assays:
# [1] = tested on: guinea pig skin; assay: In vivo fibrosis assay, intradermal injection into guinea pig skin; set-up: species or system Guinea pigs (Hartley strain); settings: for fibrogenic response / fibrosis in guinea pig skin (in words): intradermal injection of peptide in collagen carrier; for Histologic Score (degree of fibrosis), Peptide site: 400 μg peptide in 1.7 mg type I collagen carrier, 100 μl intradermal, 9 days, one value per guinea pig, scale 0 to 4
# Description: The ability of the peptides to induce cellular chemotaxis and a fibrogenic response (fibroblast proliferation and collagen synthesis) in vivo may be measured by intradermal injection of the peptides into the skin of guinea pigs. Generally, the in vivo, guinea pig skin studies were carried out according to the following protocol:
# 8 mg/cc stocks of the peptides according to the present invention in Dulbecco's PBS were sterile filtered using a 0.45μ syringe filter. PBS plus ZYDERM™ collagen (Collagen Corp., Inc.) was used as a control. Peptide stocks were diluted 1:1 with ZYDERM™ collagen (35 mg/ml), resulting in a 4 mg/ml peptide-collagen suspension. Peptide-collagen suspensions were kept on ice at all times and drawn up in 1 cc syringes fitted with 27 or 28 gauge needles.
# (§1) Guinea pigs (Hartley strain, female, weanlings) were shaved on the left and right sides of their abdomens. 100 μl of a suspension of peptide-collagen was injected intradermally in one site on each side of each guinea pig. Each site was circled with an indelible ink pen. Pigs were remarked after 3 days. At appropriate times after injection, guinea pigs were sacrificed via CO2 narcosis. Animals were shaved and a depilatory was used to remove remaining stubble. Injection sites were excised using a skin biopsy punch (6 mm). Tissue was placed in vials with 10% neutral buffered formalin. Sections were processed for staining with H+E and Masson's Trichrome.
# 8 mg/cc stocks of TGF-β1 peptides in Dulbecco's PBS were sterile filtered using a 0.45μ syringe filter. PBS plus ZYDERM™ (Collagen Corp., Inc.) was used as a control. Peptide stocks were diluted 1:1 with ZYDERM™ collagen (35 mg/ml) resulting in a 4 mg/ml peptide-collagen suspension. Peptide-collagen suspensions were kept on ice at all times and drawn up in 1 cc syringes fitted with 27 or 28 gauge needles.
# as §1, with “of” for “of a”, “peptide-collagenwas” for “peptide-collagen was”, “straining” for “staining”
# In vivo fibrosis assays were performed. Guinea pigs were injected intradermally with 400 μg of either peptide VYYVGRK (SEQ ID NO. 1) or peptide PLPIVYYVGRKPKVE (SEQ ID NO. 6) in a 100 μl volume of saline containing type I bovine collagen carrier 1.7 mg (zyderm, Celtrex Corp. Palo Alto, Calif.). As a control, at a distant site on the same guinea pig, the collagen carrier plus saline was injected intradermally as a control. Nine days later, the animals were sacrificed, and the skin sectioned through the injection sites was processed for histology using Mason-Trichrome to stain collagen fibers. The degree of fibrosis was assessed at 400×magnification to determine degree of replacement of surrounding subcutaneous fat with newly synthesized collagen. FIG. 15 is a Mason-Trichrome, 400×[…] of 9 day post intradermal injection of guinea pig skin with 100 μl, 400 μg peptide PLPIVYYVGRKPKVE ([…]) in collagen carrier (1.7 mg). There is marked (score of 4) replacement of fat cells with newly synthesized collagen in the subcutaneous fatty layer. Fibroblasts are noted scattered throughout what was once subcutaneous fatty layer. FIG. 16 is a Mason-Trichrome 400×magnification of 9 days post intradermal injection of the same guinea pig as in […] at a distant site with saline and collagen carrier as a control. Note minimal (score of 1) replacement of fat cells with newly synthesized collagen. Few fibroblasts are visible in the subcutaneous fatty layer. […]
# [2] = tested on: infant foreskin fibroblasts; assay: Collagen production by fibroblasts (modified Peterofsky-Diegelman assay); format: cell-based, human; settings: [3H]proline incorporation into collagenase-sensitive protein
# Description: The peptides of the invention were also found to stimulate collagen production by fibroblasts. Collagen production by fibroblasts in response to the peptides of the present invention was measured utilizing a modified Peterofsky-Diegelman assay. The assay is used to determine whether the peptides of the invention stimulate or inhibit collagen production by fibroblasts.
# Low passage (4-12 subpassages) infant foreskin fibroblasts were plated out at a density of 10^5 cells/well in Falcon 3008 multiwell plates in complete maintenance medium containing 10% FCS. After cells reached confluency (72 hr), the medium was changed daily for 3 days, each time being replaced with serum-free maintenance medium containing fresh ascorbic acid. Samples (50 μl) were added to triplicate wells containing 450 μl serum-free MEM supplemented with fresh ascorbic acid and [^3 H]-proline (sp. act. 20 Ci/mmole), but no non-essential amino acids. After an additional 24 hr of culture, supernatants were reacted with protease-free bacterial collagenase to digest all collagen. Similar aliquots of unreacted supernatants and bacterial collagenase-treated supernatants were precipitated with cold 10% trichloroacetic acid (TCA) and were centrifuged for 5 minutes in a Beckman microfuge. Aliquots of the supernatants, after TCA precipitated proteins were pelleted, were placed in vials containing Hydrofluor and then were counted in a scintillation counter. CPM from TCA precipitated supernatants not reacted with bacterial collagenase were subtracted from each culture. The resulting CPM was a reflection of the collagen produced by that culture.
# A modified Peterofsky-Diegelmann assay was used to screen peptide samples for their ability to stimulate or inhibit collagen production. Low passage (4-12 subpassages) infant foreskin fibroblast were plated out at a density of 10^5 cells/well of Falcon 3008 multiwell plates in complete maintenance medium containing 10% FCS. After cells reached confluency (72 hr) the medium was changed daily for 3 days, each time being replaced with serum-free maintenance medium containing fresh ascorbic acid. Samples ([…]) were added to triplicate wells containing […] serum free MEM supplemented with fresh ascorbic acid and [^3 H]-proline (sp. act. 20 Ci/mmole), but no non-essential amino acids. After an additional 24 hours of culture, supernatants were reacted with protease-free bacterial collagenase to digest all collagen. Similar aliquots of unreacted supernatants and bacterial collagenase-treated supernatants were precipitated with cold 10% trichloroacetic acid (TCA) and were centrifuged for 5 minutes in a Beckman microfuge. Aliquots of the supernatants, after TCA precipitated proteins were pelleted, were placed in vials containing Hydrofluor and then were counted in a scintillation counter. CPM from TCA precipitated supernatants not reacted with bacterial collagenase were subtracted from each culture. The resulting CPM was a reflection of the collagen produced by that culture.
# Collagen production was measured following administration of the various 7-mer peptides 368-374 (SEQ ID NOs. 1-5) to fibroblasts. Peptides […] (SEQ ID NO. 1), LYYIGKT (SEQ ID NO. 2), LYYVGRT (SEQ ID NO. 3), IYYVGRN (SEQ ID NO. 4) and IYYVGRT (SEQ ID NO. 5) were synthesized by the Merrifield technique, purified by HPLC, and tested at different concentrations in the same assay for their ability to stimulate production of collagen in confluent cultures of infant foreskin fibroblasts. Collagen production was measured by incorporation of [^3 H]proline into collagenase-sensitive protein. All samples were tested in triplicate, and values represent the mean of triplicate determinations. Data are expressed as "% stimulation" of collagen production relative to control production in cultures with plain culture medium only added. […]
substance,measurement,setting,value
YSKVLALYNQHNPGASAAPC (YSKVLALYNQHNPGASAAPC) [Peptide 337-356],fibrogenic response / fibrosis in guinea pig skin (in words),[1],induced a fibrinogenic response
same,collagen production by fibroblasts (in words),[2],stimulated to some degree
"VYYVGRK [Peptide 368-374, 7-mer corresponding to amino acids 368-374 of TGF-β1]","Histologic Score (degree of fibrosis), Peptide site",[1],1 (1 equals replacement of 10 to 25% of the fat cells with collagen)
same,fibrogenic response / fibrosis in guinea pig skin (in words),[1],did not induce
same,collagen production by fibroblasts (in words),[2],stimulated to some degree; also recorded: does stimulate fibroblast chemotaxis and synthesis of collagen and hyaluronic acid
340-391: synthetic peptide corresponding to sequence 340-391 of TGF-β1; positive chemotactic control (VLALYNQHNPGASAAPCCVPQALEPLPIVYYVGRKPKVEQLSNMIVRSCKCS; printed: Val Leu Ala Leu Tyr Asn Gln His Asn Pro Gly Ala Ser Ala Ala Pro Cys Cys Val Pro Gln Ala Leu Glu Pro Leu Pro Ile Val Tyr Tyr Val Gly Arg Lys Pro Lys Val Glu Gln Leu Ser Asn Met Ile Val Arg Ser Cys Lys Cys Ser) [Peptide 340-391],fibrogenic response / fibrosis in guinea pig skin (in words),[1],induced a fibrinogenic response
same,collagen production by fibroblasts (in words),[2],stimulated to some degree
"PLPIVYYVGRKPKVE [Peptide 364-378, 15-mer peptide 364-378 of TGF-β1]","Histologic Score (degree of fibrosis), Peptide site",[1],4 (4 equals 75 to 100% of fat cells replaced with collagen) and 3 (3 equals replacement of 50 to 75% of fat cells with collagen)
same,fibrogenic response / fibrosis in guinea pig skin (in words),[1],induced a fibrinogenic response
same,fibrogenic response / fibrosis in guinea pig skin (in words),[1]; listed as PLPIVYYVGRKPKVE,extensive collagen synthesis
same,collagen production by fibroblasts (in words),[2],stimulated to some degree
